Measurements published in PubChem BioAssay (NCI).
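Cultured in 96-well plates, cells were exposed to test compound for 48 hours across five concentrations. TGI is the concentration that stops growth completely.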

Columns and labels:
Test in all cases: NCI anticancer screen, dose series, 48 h
IGROV1 ovarian = test system: IGROV1 ovarian
HOP-62 NSCLC = test system: HOP-62 NSCLC
UACC-62 melanoma = test system: UACC-62 melanoma
CCRF-CEM leukemia = test system: CCRF-CEM leukemia
EKVX NSCLC = test system: EKVX NSCLC
HCT-116 colon = test system: HCT-116 colon
RXF 393 renal = test system: RXF 393 renal
OVCAR-5 ovarian = test system: OVCAR-5 ovarian
SK-OV-3 ovarian = test system: SK-OV-3 ovarian
HCT-15 colon = test system: HCT-15 colon
PC-3 prostate = test system: PC-3 prostate
DU-145 prostate = test system: DU-145 prostate
M14 melanoma = test system: M14 melanoma
UACC-257 melanoma = test system: UACC-257 melanoma
COLO 205 colon = test system: COLO 205 colon
SR leukemia = test system: SR leukemia
MDA-N = test system: MDA-N
SF-268 CNS = test system: SF-268 CNS
RPMI-8226 leukemia = test system: RPMI-8226 leukemia
BT-549 breast = test system: BT-549 breast
HT29 colon = test system: HT29 colon
SK-MEL-28 melanoma = test system: SK-MEL-28 melanoma
SW-620 colon = test system: SW-620 colon
HCC-2998 colon = test system: HCC-2998 colon
HL-60(TB) leukemia = test system: HL-60(TB) leukemia
NCI-H23 lung = test system: NCI-H23 lung
786-0 renal = test system: 786-0 renal
SNB-75 CNS = test system: SNB-75 CNS
MDA-MB-231 breast = test system: MDA-MB-231 breast
SF-539 CNS = test system: SF-539 CNS
SF-295 CNS = test system: SF-295 CNS
NCI-H460 lung = test system: NCI-H460 lung
T-47D breast = test system: T-47D breast
MCF7 breast = test system: MCF7 breast
A549 NSCLC = test system: A549 NSCLC
NCI/ADR-RES ovarian = test system: NCI/ADR-RES ovarian
SK-MEL-5 melanoma = test system: SK-MEL-5 melanoma
SNB-19 CNS = test system: SNB-19 CNS
HOP-92 NSCLC = test system: HOP-92 NSCLC
OVCAR-3 ovarian = test system: OVCAR-3 ovarian
SN12C renal = test system: SN12C renal
TK-10 renal = test system: TK-10 renal
LOX IMVI melanoma = test system: LOX IMVI melanoma
OVCAR-4 ovarian = test system: OVCAR-4 ovarian
U251 CNS = test system: U251 CNS
MOLT-4 leukemia = test system: MOLT-4 leukemia
MDA-MB-435 = test system: MDA-MB-435
OVCAR-8 ovarian = test system: OVCAR-8 ovarian
KM12 colon = test system: KM12 colon
UO-31 renal = test system: UO-31 renal
NCI-H522 lung = test system: NCI-H522 lung
K-562 leukemia = test system: K-562 leukemia
A498 renal = test system: A498 renal
NCI-H226 lung = test system: NCI-H226 lung
ACHN renal = test system: ACHN renal
MALME-3M melanoma = test system: MALME-3M melanoma
SK-MEL-2 melanoma = test system: SK-MEL-2 melanoma
CAKI-1 renal = test system: CAKI-1 renal

Measured: TGI

COc1ccc(-c2nc(-c3cnccn3)n(C3OC(CO)C(O)C(O)C3O)n2)cc1 (stereo not drawn)
not listed: A498 renal | NCI-H226 lung | ACHN renal | MALME-3M melanoma | SK-MEL-2 melanoma | CAKI-1 renal
> 100 µM: all other assays above

CO[P@]1(=O)O[C@@H](c2ccccc2)[C@H](O)[C@@]1(O)c1ccccc1
not listed: HOP-62 NSCLC | SF-268 CNS | RPMI-8226 leukemia | HCC-2998 colon
> 100 µM: all other assays above

CCCC(=O)Nc1cc(/C=C/C(=O)N2CC(CCl)c3ccc(N)cc32)n(C)c1 (stereo not drawn)
0.34 µM: HCC-2998 colon
2.77 µM: DU-145 prostate
> 40.9 µM: U251 CNS
14.1 µM: HCT-116 colon
0.796 µM: NCI-H460 lung
> 43.2 µM: SNB-19 CNS
> 100 µM: HOP-62 NSCLC | NCI-H226 lung | OVCAR-5 ovarian | SK-OV-3 ovarian | HCT-15 colon | PC-3 prostate | M14 melanoma | SF-268 CNS | HT29 colon | SW-620 colon | A549 NSCLC | OVCAR-3 ovarian | LOX IMVI melanoma | K-562 leukemia
0.697 µM: OVCAR-4 ovarian
0.601 µM: T-47D breast
0.572 µM: SK-MEL-2 melanoma
0.675 µM: MDA-N
0.0523 µM: A498 renal
0.471 µM: TK-10 renal
0.594 µM: SR leukemia
0.507 µM: MALME-3M melanoma
0.429 µM: SF-539 CNS
2.92 µM: 786-0 renal
0.809 µM: NCI-H23 lung
0.3 µM: COLO 205 colon
0.385 µM: CAKI-1 renal
0.304 µM: UACC-62 melanoma
0.813 µM: BT-549 breast
0.0834 µM: NCI-H522 lung
6.62 µM: SN12C renal
